Experimental data published in patent US12139488B2, “Pyrido[3,2-d]pyrimidine compounds uses thereof for treating a proliferative disease” (Universite de Montreal, priority 2021, dated 2024).

Tests used:
[1] = system: pERK in RAS-mutant cancer cell lines; test: Phospho-ERK inhibition (AlphaLISA), panel of RAS-mutant cancer cell lines; assay type: cell-based, human; conditions: in 10 of the 13 RAS-mutant cell lines tested
Experimental: All cancer cell lines (A375, A101D, A2058, RKO, HT29 SK-MEL 30, IPC298, HepG2, HCT-116, Lovo, SWV620, SW480, NCI-H358, NCI-H2122, Calu-6, NCIH2087, NCIH1755, NCIH1666 and Mewo) were obtained from ATCC and cultured in RPMI-1640 medium (Gibco) supplemented with 5% heat inactivated fetal bovine serum (FBS, Wisent) at 37° C. under 5% CO2. Cells were maintained in T175 flasks (Greiner). They were passaged by removing the culture medium, washing once in 10 mL of room temperature Phosphate Buffered Saline (PBS; Wisent) and incubating at 37° C. with 2 mL of 0.05% Trypsin (Thermo-Fisher). […]
After treatment, media was removed and cells were lysed in 50 μL of 1× AlphaScreen Ultra Lysis Buffer (Perkin Elmer). […] After completion of the reactions, the signals were recorded on an EnVision plate reader (Perkin Elmer) using built in AlphaLISA® settings.
The effect of each compound dilution on the pERK signal was expressed in % inhibition and calculated as follows. […]
The ability of each compound to inhibit pERK signal was expressed as an IC50 value obtained by plotting the inhibition values for each data point of a dilution series and fitting the obtained curves using a log(agonist) versus response-variable slope (four parameters) function using GraphPadPrism (V7.0) or Dotmatics Screening Ultra platform. […]

[2] = Body weight during TGI experiments; assay type: in vivo, NU(NCr)-Foxn1nu female mice; conditions: repeated oral treatment (QD or BID), Example 99 sodium salt suspension
Experimental: NU(NCr)-Foxn1nu mice were inoculated subcutaneously at the right flank with 1×10^6 (HCT-116 or A375) or 3×10^6 (A101D, A2058, RKO, HT29 SK-MEL 30, Calu-6, HepG2, Lovo, NCI-H2122, NCIH1666 and NCIH1755) tumour cells in 0.2 mL of the 50:50 PBS:Matrigel mixture for tumour development. Tumour measurements were taken with an electronic microcalliper three times weekly. In addition, body weights were recorded at these times. Tumor volume was calculated, taking length to be the longest diameter across the tumor and width to be the corresponding perpendicular diameter using the following formula: ((length×width×[…])/2).
For tumor growth inhibition (TGI) experiments, the treatment was performed when mean tumour size reached approximately 200 mm^3, with at least 7 mice for each time point randomized to balance the average tumour size for each treatment group. Mice were administered orally (QD or BID) with a suspension of Example 99 sodium salt in a formulation consisting of 1% NMP, 0.3% Tween-80, pH 9.1. Example 99: Na+ powder was directly resuspended in the complete blank formulation. Dosing volume was 10 mL/kg, yielding the indicated doses (doses are in mg per kg or mpk). Tumours were measured with an electronic microcalliper three times weekly. In addition, body weights were recorded at these times. Tumor volume was calculated as described above. […]

CRAF = CRAF (Homo sapiens, UniProt P04049); test: CRAF kinase activity assay (ADP-Glo); assay type: biochemical; conditions: read-out: Kinase IC50 (nM) CRAF
How it was run: (§1)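 ADP-Glo luminescence assay of BRAF and CRAF kinase reactions with MEK1 substrate and ATP. Reactions ran 2 h at 30 °C with compound over nine concentrations from 100 nM to 0.01 nM, at 0.05% DMSO final. IC50 came from four-parameter variable-slope fits of % inhibition.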

BRAF = BRAF (Homo sapiens (Human), UniProt P15056); test: BRAF kinase activity assay (ADP-Glo); assay type: biochemical; conditions: read-out: Kinase IC50 (nM) BRAF
How it was run: as §1

CRAF, sequence (P04049 whole entry, looked up): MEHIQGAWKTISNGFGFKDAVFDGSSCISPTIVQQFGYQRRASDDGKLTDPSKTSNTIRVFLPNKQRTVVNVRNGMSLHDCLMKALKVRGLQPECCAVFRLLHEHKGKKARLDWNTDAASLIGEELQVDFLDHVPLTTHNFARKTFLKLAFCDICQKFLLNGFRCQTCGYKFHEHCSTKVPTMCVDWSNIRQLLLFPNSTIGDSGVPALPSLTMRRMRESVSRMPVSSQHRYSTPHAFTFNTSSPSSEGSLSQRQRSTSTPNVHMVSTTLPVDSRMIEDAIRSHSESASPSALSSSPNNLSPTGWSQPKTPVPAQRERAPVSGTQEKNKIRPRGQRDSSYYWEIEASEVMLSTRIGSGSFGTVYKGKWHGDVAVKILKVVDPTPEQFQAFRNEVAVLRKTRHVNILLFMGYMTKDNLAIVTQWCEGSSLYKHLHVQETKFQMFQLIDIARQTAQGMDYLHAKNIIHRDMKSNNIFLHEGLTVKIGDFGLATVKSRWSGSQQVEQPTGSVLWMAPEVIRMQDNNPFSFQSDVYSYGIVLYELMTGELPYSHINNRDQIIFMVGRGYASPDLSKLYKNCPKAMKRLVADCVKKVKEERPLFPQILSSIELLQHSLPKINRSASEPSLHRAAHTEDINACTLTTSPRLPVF
BRAF, sequence (P15056 whole entry): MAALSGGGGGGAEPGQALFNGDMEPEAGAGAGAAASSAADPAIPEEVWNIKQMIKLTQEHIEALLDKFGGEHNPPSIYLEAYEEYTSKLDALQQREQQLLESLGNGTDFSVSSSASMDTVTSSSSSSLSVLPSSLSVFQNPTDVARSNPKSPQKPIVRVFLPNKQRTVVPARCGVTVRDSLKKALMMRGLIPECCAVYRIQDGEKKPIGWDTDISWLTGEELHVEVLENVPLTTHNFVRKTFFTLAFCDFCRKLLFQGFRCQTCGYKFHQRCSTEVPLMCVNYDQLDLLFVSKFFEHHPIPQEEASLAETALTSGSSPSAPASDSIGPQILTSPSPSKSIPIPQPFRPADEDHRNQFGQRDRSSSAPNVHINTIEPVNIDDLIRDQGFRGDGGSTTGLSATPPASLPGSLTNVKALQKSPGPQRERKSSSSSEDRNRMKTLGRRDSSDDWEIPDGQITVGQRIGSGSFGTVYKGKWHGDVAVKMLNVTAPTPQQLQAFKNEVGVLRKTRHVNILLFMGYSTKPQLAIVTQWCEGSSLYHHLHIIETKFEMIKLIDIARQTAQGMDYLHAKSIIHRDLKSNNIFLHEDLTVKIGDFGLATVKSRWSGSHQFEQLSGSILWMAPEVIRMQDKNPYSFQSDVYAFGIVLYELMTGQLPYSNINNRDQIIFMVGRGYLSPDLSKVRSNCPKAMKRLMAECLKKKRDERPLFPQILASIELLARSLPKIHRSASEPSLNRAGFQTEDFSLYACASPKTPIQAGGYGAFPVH

YMIN of pERK IC50 curves [1] | IC50 (CRAF) | IC50 (BRAF) | SMILES | change in body weight compared to vehicle-treated animals [2]
< −30% |  |  | Cc1ccc2c(Nc3cccc(Cl)c3F)nccc2c1NC(=O)c1csc2c(N)ncnc12 [Belvarafenib, reference compound] | 
 | < 10 nM | < 1 nM | Nc1cccc2c1ncn2-c1ccc2ncnc(Nc3c(F)ccc(NS(=O)(=O)c4cccc(Cl)c4Cl)c3F)c2n1 [Example 99] | did not result in any change in body weight
